What was measured:
AuroraA-TPX2 = biological target: T1, AuroraA-TPX2 (Homo sapiens, UniProt O14965); assay: AuroraA-TPX2 Homogeneous Time Resolved Fluorescent (HTRF) kinase assay; assay type: biochemical; conditions: average; given as class symbols; read-out: AurA/TP X2_ IC50_IP (Avg)
T1 construct: 20 µL of AuroraA-TPX2 KD GST; GST
T1 sequence (O14965 133-383 limits assumed): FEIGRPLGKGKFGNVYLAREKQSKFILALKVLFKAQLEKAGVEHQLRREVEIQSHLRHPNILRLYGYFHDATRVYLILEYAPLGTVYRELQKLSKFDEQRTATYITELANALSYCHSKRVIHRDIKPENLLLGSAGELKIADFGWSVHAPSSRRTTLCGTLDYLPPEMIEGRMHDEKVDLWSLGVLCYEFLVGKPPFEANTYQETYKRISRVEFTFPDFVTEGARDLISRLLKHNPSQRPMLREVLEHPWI
T1 sequence (Q9ULW0 1-43 partner limits assumed): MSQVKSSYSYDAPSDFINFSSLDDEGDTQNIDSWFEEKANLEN
In short: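 Aurora-A/TPX2 phosphorylates biotinylated PLK peptide (about 1 µM) with ATP for about 120 min in 60 mM HEPES pH 7.5, 10 mM MgCl2, 2 mM DTT. EDTA quench, overnight equilibration with Eu-anti-phosphoPLK antibody and SA-APC; HTRF read at 615/655 nm after 320 nm excitation.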

AuroraB = biological target: T2, AuroraB (Homo sapiens, UniProt Q96GD4); assay: AuroraB Homogeneous Time Resolved Fluorescent (HTRF) kinase assay; assay type: biochemical; conditions: average; given as class symbols; read-out: AurB_ _IC50_IP (Avg)
T2 construct: 20 µL of AuroraB FL His; His
In short: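 Full-length His-tagged AuroraB (400 pM) phosphorylates 0.1 µM biotinylated Histone H3 with 23 µM ATP (Km(app)) in HEPES pH 7.5 with Mg/Mn, about 90 min. EDTA-quenched; Eu-anti-phosphoHistoneH3 and SA-APC HTRF, 655/615 nm ratio as phosphorylation.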

T2 sequence (Q96GD4 whole entry): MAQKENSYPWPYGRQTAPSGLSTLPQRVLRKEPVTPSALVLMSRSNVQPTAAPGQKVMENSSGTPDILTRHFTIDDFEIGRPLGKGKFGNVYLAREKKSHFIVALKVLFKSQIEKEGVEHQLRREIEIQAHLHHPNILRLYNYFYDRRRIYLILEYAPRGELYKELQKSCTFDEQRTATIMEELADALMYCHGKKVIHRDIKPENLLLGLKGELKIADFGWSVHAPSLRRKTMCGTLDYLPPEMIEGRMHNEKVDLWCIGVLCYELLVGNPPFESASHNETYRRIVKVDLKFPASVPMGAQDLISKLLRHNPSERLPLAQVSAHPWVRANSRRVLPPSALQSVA

| IC50 (AuroraA-TPX2) [nM] | IC50 (AuroraB) [nM] | SMILES |
| --- | --- | --- |
| ≤ 100 | ≤ 100 | Nc1nccc(-c2cccnc2Oc2ccc(Nc3nnc(N4CCN5CCC[C@H]5C4)c4ccccc34)cn2)n1 [compound 402, N-(6-((3-(2-amino-4-pyrimidinyl)-2-pyridinyl)oxy)-3-pyridinyl)-4-((8aS)-hexahydropyrrolo[1,2-a]pyrazin-2(1H)-yl)-1-phthalazinamine] |
| ≤ 100 | ≤ 100 | Fc1cnc(NCCCN2CCCCC2)nc1-c1cccnc1Oc1ccc(Nc2nnc(-c3ccccc3)c3ccccc23)cc1 [compound 403, N-(4-((3-(5-fluoro-2-((3-(1-piperidinyl)propyl)amino)-4-pyrimidinyl)-2-pyridinyl)oxy)phenyl)-4-phenyl-1-phthalazinamine] |
| 100 to 500 | ≤ 100 | Cc1ccnc(-c2nnc(Nc3ccc(Oc4ncccc4-c4ccnc(N)n4)cc3)c3ccccc23)c1 [compound 404, N-(4-((3-(2-amino-4-pyrimidinyl)-2-pyridinyl)oxy)phenyl)-4-(4-methyl-2-pyridinyl)-1-phthalazinamine] |
| 100 to 500 | ≤ 100 | Cc1ccnc(-c2nnc(Nc3ccc(Oc4ncccc4-c4ccnc(N)n4)nc3)c3ccccc23)c1 [compound 405, N-(6-((3-(2-amino-4-pyrimidinyl)-2-pyridinyl)oxy)-3-pyridinyl)-4-(4-methyl-2-pyridinyl)-1-phthalazinamine] |
| ≤ 100 | ≤ 100 | Nc1nccc(-c2cccnc2Oc2ccc(Nc3nnc(N4CCN5CCCCC5C4)c4ccccc34)cc2)n1 (stereo not shown) [compound 406, N-(4-((3-(2-amino-4-pyrimidinyl)-2-pyridinyl)oxy)phenyl)-4-(octahydro-2H-pyrido[1,2-a]pyrazin-2-yl)-1-phthalazinamine] |
| ≤ 100 | ≤ 100 | Cc1ccnn1-c1nnc(Nc2ccc(Oc3ncccc3-c3ccnc(N)n3)cc2)c2ccccc12 [compound 407, N-(4-((3-(2-amino-4-pyrimidinyl)-2-pyridinyl)oxy)phenyl)-4-(5-methyl-1H-pyrazol-1-yl)-1-phthalazinamine] |
| ≤ 100 | ≤ 100 | Cc1ccn(-c2nnc(Nc3ccc(Oc4ncccc4-c4ccnc(N)n4)cc3)c3ccccc23)n1 [compound 408, N-(4-((3-(2-amino-4-pyrimidinyl)-2-pyridinyl)oxy)phenyl)-4-(3-methyl-1H-pyrazol-1-yl)-1-phthalazinamine] |
| 100 to 500 | ≤ 100 | Cc1ccnc(-c2nnc(Nc3ccc(Oc4ncccc4-c4ccnc(NCCCN5CCN(C)CC5)n4)cc3)c3ccccc23)c1 [compound 409, N-(4-((3-(2-((3-(4-methyl-1-piperazinyl)propyl)amino)-4-pyrimidinyl)-2-pyridinyl)oxy)phenyl)-4-(4-methyl-2-pyridinyl)-1-phthalazinamine] |
| ≤ 100 | ≤ 100 | COc1cccc(-c2nnc(Nc3ccc(Oc4ncccc4-c4ccnc(NCCCN5CCN(C)CC5)n4)cc3)c3ccccc23)n1 [compound 410, 4-(6-(methyloxy)-2-pyridinyl)-N-(4-((3-(2-((3-(4-methyl-1-piperazinyl)propyl)amino)-4-pyrimidinyl)-2-pyridinyl)oxy)phenyl)-1-phthalazinamine] |
| ≤ 100 | ≤ 100 | C[C@H]1CN(CCCNc2nccc(-c3cccnc3Oc3ccc(Nc4nnc(-c5ccccc5)c5ccccc45)cc3)n2)CCN1 [compound 411, N-(4-((3-(2-((3-((3S)-3-methyl-1-piperazinyl)propyl)amino)-4-pyrimidinyl)-2-pyridinyl)oxy)phenyl)-4-phenyl-1-phthalazinamine] |
| 100 to 500 | ≤ 100 | Cc1ccnc(-c2nnc(Nc3ccc(Oc4ncccc4-c4ccnc(NCCCN5CCOCC5)n4)cc3)c3ccccc23)c1 [compound 412, 4-(4-methyl-2-pyridinyl)-N-(4-((3-(2-((3-(4-morpholinyl)propyl)amino)-4-pyrimidinyl)-2-pyridinyl)oxy)phenyl)-1-phthalazinamine] |
| ≤ 100 | ≤ 100 | CCc1cc(-c2ccccc2)nnc1Nc1ccc(Oc2ncccc2-c2ccnc(NCCCN3CCN(C)CC3)n2)nc1 [compound 449, 4-ethyl-N-(6-((3-(2-((3-(4-methyl-1-piperazinyl)propyl)amino)-4-pyrimidinyl)-2-pyridinyl)oxy)-3-pyridinyl)-6-phenyl-3-pyridazinamine] |
| 500 to 2500 | ≤ 100 | CCc1cc(-c2ccccc2)nnc1Nc1ccc(Oc2ncccc2-c2ccnc(NCCCN3CCCCC3)n2)nc1 [compound 450, 4-ethyl-6-phenyl-N-(6-((3-(2-((3-(1-piperidinyl)propyl)amino)-4-pyrimidinyl)-2-pyridinyl)oxy)-3-pyridinyl)-3-pyridazinamine] |
| 100 to 500 | ≤ 100 | CCc1cc(-c2ccccc2)nnc1Nc1ccc(Oc2ncccc2-c2ccnc(NCCCN3CCNCC3)n2)nc1 [compound 451, 4-ethyl-6-phenyl-N-(6-((3-(2-((3-(1-piperazinyl)propyl)amino)-4-pyrimidinyl)-2-pyridinyl)oxy)-3-pyridinyl)-3-pyridazinamine] |
| ≤ 100 | ≤ 100 | FC1CCCN(CCCNc2nccc(-c3cccnc3Oc3ccc(Nc4nnc(-c5ccccc5)c5ccccc45)cc3)n2)C1 (stereo not shown) [compound 452, N-(4-((3-(2-((3-(3-fluoro-1-ptperidinyl)propyl)amino)-4-pyrimidinyl)-2-pyridinyl)oxy)phenyl)-4-phenyl-1-phthalazinamine] |
| ≤ 100 | ≤ 100 | FC1(F)CCCN(CCCNc2nccc(-c3cccnc3Oc3ccc(Nc4nnc(-c5ccccc5)c5ccccc45)cc3)n2)C1 [compound 453, N-(4-((3-(2-((3-(3,3-difluoro-1-piperidinyl)propyl)amino)-4-pyrimidinyl)-2-pyridinyl)oxy)phenyl)-4-phenyl-1-phthalazinamine] |
| ≤ 100 | ≤ 100 | COc1cccc(-c2nnc(Nc3ccc(Oc4ncccc4-c4ccnc(NCCCN5CCCCC5)n4)cc3)c3ccccc23)n1 [compound 454, 4-(6-(methyloxy)-2-pyridinyl)-N-(4-((3-(2-((3-(1-piperidinyl)propyl)amino)-4-pyrimidinyl)-2-pyridinyl)oxy)phenyl)-1-phthalazinamine] |
| ≤ 100 | ≤ 100 | COc1cccc(-c2nnc(Nc3ccc(Oc4ncccc4-c4ccnc(NCCCN5CCCC5)n4)cc3)c3ccccc23)n1 [compound 455, 4-(6-(methyloxy)-2-pyridinyl)-N-(4-((3-(2-((3-(1-pyrrolidinyl)propyl)amino)-4-pyrimidinyl)-2-pyridinyl)oxy)phenyl)-1-phthalazinamine] |
| ≤ 100 | ≤ 100 | CCc1cc(-c2ccccc2)nnc1Nc1ccc(Oc2ncccc2-c2ccnc(NCCCN3CCN(C)CC3)n2)cc1 [compound 456, 4-ethyl-N-(4-((3-(2-((3-(4-methyl-1-piperazinyl)propyl)amino)-4-pyrimidinyl)-2-pyridinyl)oxy)phenyl)-6-phenyl-3-pyridazinamine] |
| ≤ 100 | ≤ 100 | CCc1cc(-c2ccccc2)nnc1Nc1ccc(Oc2ncccc2-c2ccnc(NCCCN3CCNCC3)n2)cc1 [compound 457, 4-ethyl-6-phenyl-N-(4-((3-(2-((3-(1-piperazinyl)propyl)amino)-4-pyrimidinyl)-2-pyridinyl)oxy)phenyl)-3-pyridazinamine] |

Source: EP1984353B1, “AURORA KINASE MODULATORS AND METHOD OF USE” (Amgen, Inc, priority 2006, dated 2007)
